The source of these data is US20260176285A1, “SALT OF DIOXANE QUINOLINE COMPOUND, CRYSTAL FORM THEREOF, PREPARATION METHODS THEREFOR AND USES THEREOF” (Beijing Scitech-MQ Pharmaceuticals Limited, priority 2022, published 2026).

Data set [1] in a line: Equilibrium solubility in water. It counts as physicochemical. The note with it: H2O, room temperature, 24 hours; listed as p-Toluenesulfonate salt crystal form A-II. As for the experimental part: The sample was centrifuged and filtered, and the filtrate was tested by HPLC.
The nature of data set [2]: Long-term stability study. It counts as physicochemical. Here is the method:
p-Toluenesulfonate salt crystal form A-II of the compound of formula (I) was placed at 25° C./60% RH for 6 months to investigate its long-term stability.

The target of data set [3] is T1, MET (Homo sapiens, UniProt P08581).
T1 construct: purchased Carna 08-151
Kind of data set: Kinase activity, Mobility Shift Assay. It counts as biochemical. Here is the method:
(§1) The assay used the Mobility Shift Assay method. The starting concentration of the test substance was 2.5 μM, which was serially diluted 3-fold to give a total of 10 concentrations, in duplicate.
(§2) The p-toluenesulfonate salt of the free compound prepared in Example 2 was used as the test compound. The starting concentration of the test was 2.5 μM, and the concentration was prepared to 50 times, that is, 125 μM. 158 μl of 100% DMSO was added to the second well of a 96-well plate, and then 2 μl of 10 mM compound solution was added to prepare a 125 μM compound solution. 60 μl of 100% DMSO was added to the other wells. 30 μl of the compound was taken out from the second well and added to the third well, and the 3-fold dilution was made successively to give a total of 10 dilutions. Dilution instrument: automatic microwell pipette (Precision PRC384U)
(§3) • (1) 10 μl was taken out from each well of the 96-well plate with 50-fold compound concentration and transferred to another 96-well plate. 90 μl of kinase buffer was added to prepare a 5-fold compound concentration. • (2) 5 μl was taken out from the 96-well plate with 5-fold compound concentration and transferred to a 384-well reaction plate. For example, the compound in well A1 of the 96-well plate was transferred to wells A1 and A2 of the 384-well plate, the compound in well A2 of the 96-well plate was transferred to wells A3 and A4 of the 384-well plate, and so on.
(§4) Kinase was added to 1× kinase buffer to make a 2.5 times enzyme solution.
(§5) • (1) 5 μl of 5× compound dissolved in 10% DMSO was already in the 384-well reaction plate. • (2) 10 μl of 2.5× enzyme solution was added to the 384-well reaction plate and 10 μl of kinase buffer was added to the negative control wells. • (3) Incubation at room temperature for 10 minutes.
(§6) FAM-labeled peptide and ATP (ATP concentration see Appendix) were added to 1× kinase buffer to form a 2.5× substrate solution.
(§7) 10 μl of 2.5× substrate solution was added to the 384-well reaction plate and centrifuged at 1000 rpm for 1 minute.
(§8) • (1) The plate was incubated at 28° C. for 60 minutes (Biochemical incubator model: SPX-100B-Z). • (2) 30 μl of stop solution was added to the 384-well reaction plate to terminate the reaction and centrifuged at 1000 rpm for 1 minute.
(§9) The data of conversion rate was read on Caliper EZ Reader II.
(§10) • 1) The conversion rate data was copied from Caliper EZ Reader II. • 2) The conversion rate was converted to inhibition rate data, where max refers to the conversion rate of the DMSO control and min refers to the conversion rate of the no enzyme activity control.
(§11) [formula] • 3) Fitting of IC50 values using XLFit excel add-in version 5.4.0.8

The target in data set [4] is T2, TRK-B (Homo sapiens, UniProt Q16620).
T2 construct: purchased Carna 08-187
Kind of data set: Kinase activity, Mobility Shift Assay. Format: biochemical. As for the experimental part:
as §1, §2, §3, §4, §5, §6, §7, §8, §9, §10, §11

Data set [5] concerns the target T3, PDGFRa (Homo sapiens, UniProt P16234).
T3 construct: purchased BPS 40260
Nature of the data set: Kinase activity, Mobility Shift Assay. It counts as biochemical. Here is the method:
as §1, §2, §3, §4, §5, §6, §7, §8, §9, §10, §11

Data set [6] addresses T4, AXL (Homo sapiens, UniProt P30530).
T4 construct: purchased Carna 08-107
T4 sequence (P30530 26-894): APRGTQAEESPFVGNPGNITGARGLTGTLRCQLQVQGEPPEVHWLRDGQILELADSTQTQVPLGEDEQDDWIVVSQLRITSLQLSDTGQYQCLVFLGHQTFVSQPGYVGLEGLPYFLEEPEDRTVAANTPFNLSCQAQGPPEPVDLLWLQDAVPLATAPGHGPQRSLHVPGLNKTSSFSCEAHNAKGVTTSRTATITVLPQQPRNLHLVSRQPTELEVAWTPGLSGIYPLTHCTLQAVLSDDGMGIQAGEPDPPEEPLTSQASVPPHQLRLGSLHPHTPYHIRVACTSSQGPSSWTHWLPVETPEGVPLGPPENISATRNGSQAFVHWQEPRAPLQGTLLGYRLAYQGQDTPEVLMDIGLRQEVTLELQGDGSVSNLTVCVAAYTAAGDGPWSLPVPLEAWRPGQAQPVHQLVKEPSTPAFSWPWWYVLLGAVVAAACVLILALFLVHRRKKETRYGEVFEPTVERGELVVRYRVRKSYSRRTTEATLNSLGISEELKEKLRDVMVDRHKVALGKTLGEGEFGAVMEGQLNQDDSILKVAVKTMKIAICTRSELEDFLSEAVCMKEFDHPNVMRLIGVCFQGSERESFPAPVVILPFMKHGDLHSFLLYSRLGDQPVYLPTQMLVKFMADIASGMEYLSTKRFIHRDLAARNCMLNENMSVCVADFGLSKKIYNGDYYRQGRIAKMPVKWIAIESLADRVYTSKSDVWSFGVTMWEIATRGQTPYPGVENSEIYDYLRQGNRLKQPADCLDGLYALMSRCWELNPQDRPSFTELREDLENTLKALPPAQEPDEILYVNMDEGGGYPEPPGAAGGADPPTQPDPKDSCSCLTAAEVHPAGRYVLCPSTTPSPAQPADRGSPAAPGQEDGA
Kind of data set: Kinase activity, Mobility Shift Assay. Format: biochemical. As for the experimental part:
as §1, §2, §3, §4, §5, §6, §7, §8, §9, §10, §11

Data set [7] concerns the target T5, TRK-A (Homo sapiens, UniProt P04629).
T5 construct: purchased Carna 08-186
Kind of data set: Kinase activity, Mobility Shift Assay. Format: biochemical. Here is the method:
as §1, §2, §3, §4, §5, §6, §7, §8, §9, §10, §11

The target of data set [8] is T6, KIT (Homo sapiens, UniProt P10721).
T6 construct: purchased eurofins 14-559M
Kind of data set: Kinase activity, Mobility Shift Assay. Format: biochemical. Here is the method: as §1, §2, §3, §4, §5, §6, §7, §8, §9, §10, §11

Data set [9] addresses T7, KDR(VEGFR2) (Homo sapiens, UniProt P35968).
T7 construct: purchased Carna 08-191
Kind of data set: Kinase activity, Mobility Shift Assay. Format: biochemical. Here is the method:
as §1, §2, §3, §4, §5, §6, §7, §8, §9, §10, §11

The target in data set [10] is T8, RET (Homo sapiens, UniProt P07949).
T8 construct: purchased Carna 08-159
Nature of the data set: Kinase activity, Mobility Shift Assay. It counts as biochemical. As for the experimental part:
as §1, §2, §3, §4, §5, §6, §7, §8, §9, §10, §11

The mark [11] stands for this setting: 25° C./60% RH, simulating factory packaging, 3 months.
Where [12] appears, read: 25° C./60% RH, simulating factory packaging, 6 months.

Each structure is given as a SMILES string.

T8 sequence (P07949 29-1114): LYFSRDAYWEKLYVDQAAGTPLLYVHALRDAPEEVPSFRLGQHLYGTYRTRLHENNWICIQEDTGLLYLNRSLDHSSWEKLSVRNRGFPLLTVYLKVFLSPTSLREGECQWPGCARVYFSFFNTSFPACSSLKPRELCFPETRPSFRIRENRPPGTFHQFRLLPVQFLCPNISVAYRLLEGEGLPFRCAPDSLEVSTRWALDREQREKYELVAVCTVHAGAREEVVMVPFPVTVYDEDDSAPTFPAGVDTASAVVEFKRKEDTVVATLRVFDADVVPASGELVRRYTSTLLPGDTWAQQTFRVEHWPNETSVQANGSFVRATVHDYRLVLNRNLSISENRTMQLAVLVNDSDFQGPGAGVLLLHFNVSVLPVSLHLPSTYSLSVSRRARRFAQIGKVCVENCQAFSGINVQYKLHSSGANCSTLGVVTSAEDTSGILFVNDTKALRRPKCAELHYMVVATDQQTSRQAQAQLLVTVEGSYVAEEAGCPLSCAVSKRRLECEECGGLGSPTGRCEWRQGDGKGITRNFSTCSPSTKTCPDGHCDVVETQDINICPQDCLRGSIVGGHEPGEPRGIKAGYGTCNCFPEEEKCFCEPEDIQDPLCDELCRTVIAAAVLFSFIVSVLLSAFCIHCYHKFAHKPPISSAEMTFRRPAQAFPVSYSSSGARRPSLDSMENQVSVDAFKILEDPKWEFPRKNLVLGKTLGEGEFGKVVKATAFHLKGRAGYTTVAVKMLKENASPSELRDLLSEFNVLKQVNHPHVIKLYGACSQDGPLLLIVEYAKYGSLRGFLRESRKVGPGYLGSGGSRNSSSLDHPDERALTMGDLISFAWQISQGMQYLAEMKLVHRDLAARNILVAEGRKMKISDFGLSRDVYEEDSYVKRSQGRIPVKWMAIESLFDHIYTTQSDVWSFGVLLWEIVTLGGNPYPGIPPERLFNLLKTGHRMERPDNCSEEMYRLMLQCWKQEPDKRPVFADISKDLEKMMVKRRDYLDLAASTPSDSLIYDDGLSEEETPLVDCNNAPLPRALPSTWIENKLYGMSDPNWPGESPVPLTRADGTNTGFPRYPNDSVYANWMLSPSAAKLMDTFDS
T7 sequence (P35968 20-1356): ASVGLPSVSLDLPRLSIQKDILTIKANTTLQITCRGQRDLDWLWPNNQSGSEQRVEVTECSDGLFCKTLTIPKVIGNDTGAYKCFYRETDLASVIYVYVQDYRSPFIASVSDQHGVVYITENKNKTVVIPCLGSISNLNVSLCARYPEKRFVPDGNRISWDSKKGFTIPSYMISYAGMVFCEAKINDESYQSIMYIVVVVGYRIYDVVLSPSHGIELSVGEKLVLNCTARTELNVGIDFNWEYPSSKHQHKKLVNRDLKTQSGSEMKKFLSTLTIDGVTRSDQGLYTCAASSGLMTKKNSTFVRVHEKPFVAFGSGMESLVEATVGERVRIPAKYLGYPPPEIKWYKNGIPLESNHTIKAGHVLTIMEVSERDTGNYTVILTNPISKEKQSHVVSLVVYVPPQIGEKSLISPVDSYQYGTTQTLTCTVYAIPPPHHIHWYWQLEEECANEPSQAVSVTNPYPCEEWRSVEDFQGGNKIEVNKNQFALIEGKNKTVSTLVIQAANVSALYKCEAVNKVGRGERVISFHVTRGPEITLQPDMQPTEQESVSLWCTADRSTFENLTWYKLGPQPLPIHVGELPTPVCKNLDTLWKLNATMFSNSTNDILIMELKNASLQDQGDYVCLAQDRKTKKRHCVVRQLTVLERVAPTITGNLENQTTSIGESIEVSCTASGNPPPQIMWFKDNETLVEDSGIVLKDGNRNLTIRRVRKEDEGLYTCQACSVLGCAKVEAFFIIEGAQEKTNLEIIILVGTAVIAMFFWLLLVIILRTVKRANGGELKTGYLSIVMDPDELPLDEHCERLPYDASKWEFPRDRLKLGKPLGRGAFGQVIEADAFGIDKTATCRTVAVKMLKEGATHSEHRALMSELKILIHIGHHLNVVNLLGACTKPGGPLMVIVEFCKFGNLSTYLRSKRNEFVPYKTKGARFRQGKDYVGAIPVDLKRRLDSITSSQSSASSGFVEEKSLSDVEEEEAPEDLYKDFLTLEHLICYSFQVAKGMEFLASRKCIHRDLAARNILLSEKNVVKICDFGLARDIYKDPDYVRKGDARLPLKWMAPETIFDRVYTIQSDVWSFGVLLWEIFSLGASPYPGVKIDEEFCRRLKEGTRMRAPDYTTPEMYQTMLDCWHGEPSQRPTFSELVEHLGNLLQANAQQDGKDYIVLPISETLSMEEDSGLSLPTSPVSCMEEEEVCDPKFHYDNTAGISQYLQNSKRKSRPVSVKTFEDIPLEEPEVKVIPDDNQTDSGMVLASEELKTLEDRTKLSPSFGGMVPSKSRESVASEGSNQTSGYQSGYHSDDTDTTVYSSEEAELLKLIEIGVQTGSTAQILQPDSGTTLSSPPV
T1 sequence (P08581 25-1390): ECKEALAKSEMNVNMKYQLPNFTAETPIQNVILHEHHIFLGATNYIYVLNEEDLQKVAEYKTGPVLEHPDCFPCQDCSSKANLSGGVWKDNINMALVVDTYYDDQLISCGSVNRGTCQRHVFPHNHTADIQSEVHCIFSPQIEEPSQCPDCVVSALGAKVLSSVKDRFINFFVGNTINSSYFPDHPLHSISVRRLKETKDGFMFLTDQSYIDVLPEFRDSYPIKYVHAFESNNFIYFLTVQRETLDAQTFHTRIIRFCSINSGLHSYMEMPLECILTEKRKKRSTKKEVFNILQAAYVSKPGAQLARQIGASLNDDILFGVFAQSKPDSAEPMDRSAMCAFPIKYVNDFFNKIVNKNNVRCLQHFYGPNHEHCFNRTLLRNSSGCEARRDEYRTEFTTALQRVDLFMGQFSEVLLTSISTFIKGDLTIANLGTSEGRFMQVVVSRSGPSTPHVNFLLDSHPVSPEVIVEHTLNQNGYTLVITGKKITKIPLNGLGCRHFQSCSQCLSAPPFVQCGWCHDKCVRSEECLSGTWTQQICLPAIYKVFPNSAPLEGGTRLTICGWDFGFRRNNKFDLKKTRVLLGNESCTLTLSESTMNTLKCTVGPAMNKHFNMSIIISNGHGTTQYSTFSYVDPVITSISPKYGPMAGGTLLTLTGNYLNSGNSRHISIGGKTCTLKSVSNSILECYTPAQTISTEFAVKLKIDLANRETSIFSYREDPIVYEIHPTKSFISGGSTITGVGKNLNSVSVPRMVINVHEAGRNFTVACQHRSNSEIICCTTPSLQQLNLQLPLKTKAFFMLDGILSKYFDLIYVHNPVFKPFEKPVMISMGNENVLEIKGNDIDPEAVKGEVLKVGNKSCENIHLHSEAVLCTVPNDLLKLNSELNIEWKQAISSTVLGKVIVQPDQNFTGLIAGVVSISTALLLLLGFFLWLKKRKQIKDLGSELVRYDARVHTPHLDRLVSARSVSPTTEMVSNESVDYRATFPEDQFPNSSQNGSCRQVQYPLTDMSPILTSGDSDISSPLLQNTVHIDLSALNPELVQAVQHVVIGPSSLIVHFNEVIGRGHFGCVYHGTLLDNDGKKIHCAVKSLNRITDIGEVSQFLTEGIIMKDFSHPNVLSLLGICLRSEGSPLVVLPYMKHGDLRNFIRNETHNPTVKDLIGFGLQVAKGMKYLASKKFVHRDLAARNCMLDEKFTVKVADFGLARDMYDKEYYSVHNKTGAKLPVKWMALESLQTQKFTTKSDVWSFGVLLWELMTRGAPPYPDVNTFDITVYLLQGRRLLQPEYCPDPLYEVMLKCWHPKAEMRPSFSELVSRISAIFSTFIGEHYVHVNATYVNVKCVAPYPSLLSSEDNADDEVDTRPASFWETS
T5 sequence (P04629 33-796): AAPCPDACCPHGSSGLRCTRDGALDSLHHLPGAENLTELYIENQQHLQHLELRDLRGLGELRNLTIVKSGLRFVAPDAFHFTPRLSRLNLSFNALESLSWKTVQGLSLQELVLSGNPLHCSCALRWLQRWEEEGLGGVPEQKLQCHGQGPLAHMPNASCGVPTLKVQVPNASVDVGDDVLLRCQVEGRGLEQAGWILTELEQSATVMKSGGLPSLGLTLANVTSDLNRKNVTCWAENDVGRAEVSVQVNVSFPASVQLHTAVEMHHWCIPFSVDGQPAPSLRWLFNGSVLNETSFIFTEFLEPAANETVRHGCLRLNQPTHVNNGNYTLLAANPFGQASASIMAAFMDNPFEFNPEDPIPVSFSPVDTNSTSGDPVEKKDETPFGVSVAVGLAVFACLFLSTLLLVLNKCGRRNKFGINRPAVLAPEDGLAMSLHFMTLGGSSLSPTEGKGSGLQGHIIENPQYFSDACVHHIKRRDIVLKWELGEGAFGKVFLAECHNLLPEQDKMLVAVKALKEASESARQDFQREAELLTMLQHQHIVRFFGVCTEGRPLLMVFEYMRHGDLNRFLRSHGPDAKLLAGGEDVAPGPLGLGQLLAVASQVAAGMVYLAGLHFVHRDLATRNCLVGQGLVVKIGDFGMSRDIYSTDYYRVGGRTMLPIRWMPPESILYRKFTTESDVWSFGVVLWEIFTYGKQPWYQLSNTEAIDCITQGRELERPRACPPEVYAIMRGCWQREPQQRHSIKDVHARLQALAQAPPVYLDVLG

For `O=C(Nc1ccc(F)cc1)C1(C(=O)Nc2ccc(Oc3ccnc4cc(OCCCN5CCOCC5)c5c(c34)OCCO5)c(F)c2)CC1` [Example 2, N-(3-fluoro-4-((5-(3-morpholinopropoxy)-2,3-dihydro-[1,4]dioxano[2,3-f]quinolin-10-yl)oxy)phenyl)-N-(4-fluorophenyl)cyclopropane-1,1-dicarboxamide], the “Solubility (equilibrium)” value in data set [1] is reported as 5.1 mg/mL. Further, in data set [2] (setting [11]), the Appearance result is “Off-white”, the Content is recorded as 100.0%, the Crystal form result was “No” and the Moisture is reported as 0.31%. The molecule further displayed a Total impurities in data set [2] (setting [11]) of 0.38%. For the same molecule, in [2] (setting [12]), the Appearance result is “Off-white”, the Content is 100.5%, the Crystal form result was “No” and the Moisture is listed as 0.59%. The molecule also showed a Total impurities in data set [2] (setting [12]) of 0.36%. Also, in [2] (Day 0), the Appearance entry is recorded as “Off-white”, the Content stood at 100.2%, the Crystal form entry is “No” and the Moisture was 0.53%. Besides, the Total impurities in [2] (Day 0) amounted to 0.37%. Further, the “inhibition of the activity of c-MET (in words)” value in data set [3] is listed as “effectively inhibit”. Moreover, in data set [4], the “inhibition of the activity of TRK-B (in words)” value is “effectively inhibit”. Besides, in data set [5], the “inhibition of the activity of PDGFRa (in words)” value is reported as “effectively inhibit”. The “inhibition of the activity of AXL (in words)” value in data set [6] was “effectively inhibit”. The “inhibition of the activity of TRK-A (in words)” value in data set [7] is recorded as “effectively inhibit”. Besides, the “inhibition of the activity of c-KIT (in words)” value in [8] is recorded as “effectively inhibit”. In addition, in data set [9], the “inhibition of the activity of VEGFR-2 (in words)” value is listed as “effectively inhibit”. Also, the “inhibition of the activity of RET (in words)” value in data set [10] is on record as “effectively inhibit”.
